Assay: Phase I pharmacokinetics, 72-h continuous infusion, whole-blood and urine HPLC
Source text: Brrtish Joumal of Cancer(1998) 78(10). 1329-1336 @ 1998 Cancer Research Campaign A phase I clinical and pharmacokinetic study of the new topoisomerase inhibitor G1147211 given as a 72-h continuous infusion L Paz-Aresl*, R Kunkal 2, D DeMarial-3, J Cassidy' 4, M Alden3, P Beranek2, S Kaye', D Littlefield2, D Reilly3, S Depee2, P Wissel2, C Twelves' and P O'Dwyer3 CRC Department of Medical Oncology. University of Glasgow. Westem Infirmary Hospital. Glasgow Gll 6NT. UK; 2Glaxo Wellcome Research. Five Moore Drive. Research Triangle Park. NC 27709. USA; 'Fox Chase Cancer Center. 7701 Burholme Avenue. Philadelphia, PA 19111. USA: 4Thomas Jefferson University. Kimmel Cancer Institute. Bluemle Life Sciences Building. 233 S. 10th Street. Suite 502. Philadelphia. PA 19107. […] This study was designed to determine the maximum tolerated dose of Gl147211 as a 72-h infusion and to describe its pharmacokinetics and pharmacodynamics on this schedule. In a single-arm, rising-dose study in patients with advanced cancer, eight cohorts of three or more patients received 72-h infusions of G1147211 at doses ranging from 0.25 to 2.5 mg m-2 day-'. […] Whole-blood G1147211 lactone, total blood and total concentrations were measured during and over the 12 h following the infusion. […] Extensive phase 11 evaluation of this compound and further phase I trials evaluating more prolonged infusions are ongoing. Keywords: G1147211: GG211: camptothecin analogues: topoisomerase I inhibitor; phase I trial; pharmacokinetics: pharmacodynamics: continuous infusion GI 147211 (7-4 methyl piperazinomethilene)- 10.1 1 -ethylenedioxy - 20-(S camptothecin: Figure 1) is a totally synthetic analogue of camptothecin. a natural product isolated from Camptotheca acuminata (WAall et al. 1966: Emerson et al. 1995). […] The nuclear enzyvme DNA topoisomerase I. x hich relaxes DNA supercoils arising during, replication and gene tran- scription. has been identified as the specific targret of camptothecin (Hsianer and Liu. 1988: Wall and Wani. 1995).

Compound: CC[C@@]1(O)C(=O)OCc2c1cc1n(c2=O)Cc2c-1nc1cc3c(cc1c2CN1CCN(C)CC1)OCCO3 [GI147211, 7-4 methyl piperazinomethilene)-10.1 1-ethylenedioxy - 20-(S camptothecin]
- Css (at doses of 1.2 mg m-2 day-1 and above): > 1 ng/mL
- Clearance, average (human, in vivo): 1074 ml min-1 m-2
- Mean clearance values, range over the dose range (human, in vivo): 776-1554 ml min-1 m-2
- Mean terminal elimination half-life (human, in vivo): 7.5 h
- Renal clearance, average (human, in vivo): 164 ml min-
- Clearance, mean (human, in vivo, 0.25 mg): 776 ml min-1 m-2
- Clearance, mean (human, in vivo, 0.5 mg): 864 ml min-1 m-2
- Clearance, mean (human, in vivo, 1 mg): 826 ml min-1 m-2
- Half-life, mean (human, in vivo, 1 mg): 7.9 h
- Clearance, mean (human, in vivo, 1.2 mg): 1279 ml min-1 m-2
- Half-life, mean (human, in vivo, 1.2 mg): 6.1 h
- Clearance, mean (human, in vivo, 1.5 mg): 1046 ml min-1 m-2
- Half-life, mean (human, in vivo, 1.5 mg): 7.4 h
- Clearance, mean (human, in vivo, 2 mg): 1290 ml min-1 m-2
- Half-life, mean (human, in vivo, 2 mg): 7.2 h
- Clearance, mean (human, in vivo, 2.5 mg): 1554 ml min-1 m-2
- Half-life, mean (human, in vivo, 2.5 mg): 8.5 h
- Total drug recovered unaltered in urine (in vivo): ~11%
- Variation in Css with dose level (in vivo): two- to threefold
- Clearance, mean (lactone, 1.75 mg m-2 day-1, n=3): 1138 ml min-1 m-2
- Css, mean (lactone, whole blood, 0.25 mg m-2 day-1, n=6): 0.25 ng/mL
- Css, mean (lactone, whole blood, 1.0 mg m-2 day-1, n=5): 0.86 ng/mL
- Css, mean (lactone, whole blood, 1.2 mg m-2 day-1, n=3): 0.74 ng/mL
- Css, mean (lactone, whole blood, 1.5 mg m-2 day-1, n=10): 1.09 ng/mL
- Css, mean (lactone, whole blood, 1.75 mg m-2 day-1, n=3): 1.10 ng/mL
- Css, mean (lactone, whole blood, 2.0 mg m-2 day-1, n=11): 1.09 ng/mL
- Css, mean (lactone, whole blood, 2.5 mg m-2 day-1, n=2): 1.21 ng/mL
- Mean fraction of drug excreted unchanged in the urine (fe) (total drug in urine, 15 subjects): 0.114
- Total blood concentrations (lactone plus carboxylate) relative to lactone concentrations (whole blood): approximately four

— publication PMC2063170, “A phase I clinical and pharmacokinetic study of the new topoisomerase inhibitor GI147211 given as a 72-h continuous infusion” (British Journal of Cancer, 1998)
